Experimental findings from patent US10815276B2, “Cell penetrating peptides and methods of making and using thereof” (Entrada Therapeutics, Inc., priority 2014, dated 2020) are described below.

The target in the assay is T1, Pin1 (Homo sapiens, UniProt Q13526, S16A/Y23A).
T1 construct: The full-length human S16A/Y23A mutant Pin1 was expressed and purified from E. coli; made in house
Put plainly: Pin1 binding by FA (FITC-labeled peptides). Particulars: for Kd: FITC-labeled peptide, FA, read-out: KD.

Starred links: 1 amine or outer side, 2 acyl side, 3 side chain; linkers in the order of their positions; H or OH if unused. Positions of bridges follow the written chain, without caps; N, C: chain ends. Non-standard residues stand in square brackets, D forms with d. Residues, ends and D or L forms follow the SMILES beside them. Trimesoyl = O=C(c1cc(C(=O)[*:2])cc(C(=O)[*:3])c1)[*:1]; Phe(3,4-F2) = N[C@@H](Cc1ccc(F)c(F)c1)C(=O)O; dPhe(4-CN) = N#Cc1ccc(C[C@@H](N)C(=O)O)cc1; Phe(4-F) = N[C@@H](Cc1ccc(F)cc1)C(=O)O; dPhe(3-F) = N[C@H](Cc1cccc(F)c1)C(=O)O; 2Nal = N[C@@H](Cc1ccc2ccccc2c1)C(=O)O; dPhe(2-F) = N[C@H](Cc1ccccc1F)C(=O)O; Pip = O=C(O)[C@@H]1CCCCN1; Dap = NC[C@H](N)C(=O)O; Sar = CNCC(=O)O

T1 sequence (Q13526 whole entry S16A/Y23A): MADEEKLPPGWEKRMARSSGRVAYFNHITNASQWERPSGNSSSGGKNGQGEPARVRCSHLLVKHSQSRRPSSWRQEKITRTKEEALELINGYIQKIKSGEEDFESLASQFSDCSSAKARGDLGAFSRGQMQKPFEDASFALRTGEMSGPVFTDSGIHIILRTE
Experimental: FA experiments were carried out by incubating 100 nM FITC-labeled peptide with varying concentrations of protein in 20 mM HEPES (pH 7.4), 150 mM NaCl, 2 mM magnesium acetate, and 0.1% bovine serum albumin (BSA) for 2 h at room temperature. The FA values were measured on a Molecular Devices Spectramax M5 plate reader, with excitation and emission wavelengths at 485 and 525 nm, respectively. Equilibrium dissociation constants (KD) were determined by plotting the FA values as a function of protein concentration and fitting the curve to the following equation:

In the case of `CC(C)[C@H]1NC(=O)c2cc3cc(c2)C(=O)NC[C@H](NC(=O)[C@@H](C)NC(=O)[C@H](C)NC(=O)[C@H](CCCNC(=N)N)NC(=O)[C@H](Cc2ccc4ccccc4c2)NC(=O)[C@@H]2CCCCN2C(=O)[C@@H]([C@H](C)O)NC(=O)[C@H](Cc2ccc(F)cc2)NC1=O)C(=O)N[C@@H](Cc1ccccc1)C(=O)N[C@@H](Cc1ccc2ccccc2c1)C(=O)N[C@@H](CCCNC(=N)N)C(=O)N[C@@H](CCCNC(=N)N)C(=O)N[C@@H](CCCNC(=N)N)C(=O)N[C@@H](CCCNC(=N)N)C(=O)N[C@H](C(=O)N[C@@H](CCCCN)C(N)=O)CNC3=O` [Peptide 34, bicyclo[Tm-(D-Val-4-Fpa-D-Thr-Pip-Nal-Arg-Ala-D-Ala)-Dap-(Phe-Nal-Arg-Arg-Arg-Arg-Dap)]-Lys] ([dV][Phe(4-F)][dT][Pip][2Nal]RA[dA][Dap]F[2Nal]RRRR[Dap]K-NH2; linker N-9-16 via Trimesoyl; C-terminus assumed), the equilibrium dissociation constant (Kd) is 1070 ± 160 nM. For `CN1CC(=O)N[C@H](CC(=O)O)C(=O)N2CCCC[C@H]2C(=O)N[C@@H](Cc2ccc3ccccc3c2)C(=O)N[C@@H](CCCNC(=N)N)C(=O)N[C@@H](CCCNC(=N)N)C(=O)N[C@H](CCCNC(=N)N)C(=O)N[C@H]2CNC(=O)c3cc(cc(c3)C(=O)N3CCC[C@H]3C1=O)C(=O)NC[C@@H](C(=O)N[C@@H](CCCCN)C(N)=O)NC(=O)[C@H](CCCNC(=N)N)NC(=O)[C@H](CCCNC(=N)N)NC(=O)[C@H](CCCNC(=N)N)NC(=O)[C@H](CCCNC(=N)N)NC(=O)[C@H](Cc1ccc3ccccc3c1)NC(=O)[C@H](Cc1ccccc1)NC2=O` [Peptide 24, bicyclo[Tm-(Pro-Sar-D-Asp-Pip-Nal-Arg-Arg-D-Arg)-Dap-(Phe-Nal-Arg-Arg-Arg-Arg-Dap)]-Lys] (P[Sar][dD][Pip][2Nal]RR[dR][Dap]F[2Nal]RRRR[Dap]K-NH2; linker N-9-16 via Trimesoyl; C-terminus assumed), the dissociation constant Kd came out at 1310 ± 100 nM. Same read-out and setting: the value for `C[C@@H]1NC(=O)[C@H](CCCNC(=N)N)NC(=O)[C@H](Cc2ccc3ccccc3c2)NC(=O)[C@@H]2CCCCN2C(=O)[C@@H]([C@H](C)O)NC(=O)[C@H](Cc2ccc(F)cc2)NC(=O)[C@@H](Cc2ccccc2F)NC(=O)c2cc3cc(c2)C(=O)NC[C@H](NC(=O)[C@@H](Cc2ccccc2)NC1=O)C(=O)N[C@@H](Cc1ccccc1)C(=O)N[C@@H](Cc1ccc2ccccc2c1)C(=O)N[C@@H](CCCNC(=N)N)C(=O)N[C@@H](CCCNC(=N)N)C(=O)N[C@@H](CCCNC(=N)N)C(=O)N[C@@H](CCCNC(=N)N)C(=O)N[C@H](C(=O)N[C@@H](CCCCN)C(N)=O)CNC3=O` [Peptide 35, bicyclo[Tm-(D-2-Fpa-Fpa-D-Thr-Pip-Nal-Arg-Ala-D-Phe)-Dap-(Phe-Nal-Arg-Arg-Arg-Arg-Dap)]-Lys] ([dPhe(2-F)][Phe(4-F)][dT][Pip][2Nal]RA[dF][Dap]F[2Nal]RRRR[Dap]K-NH2; linker N-9-16 via Trimesoyl; C-terminus assumed) was 590 ± 50 nM. On to `CN1CC(=O)N[C@H](CC(=O)O)C(=O)N2CCCC[C@H]2C(=O)N[C@@H](Cc2ccc3ccccc3c2)C(=O)N[C@@H](CCCNC(=N)N)C(=O)N[C@@H](CCCNC(=N)N)C(=O)N[C@H](Cc2ccccc2)C(=O)N[C@H]2CNC(=O)c3cc(cc(c3)C(=O)N3CCC[C@H]3C1=O)C(=O)NC[C@@H](C(=O)N[C@@H](CCCCN)C(N)=O)NC(=O)[C@H](CCCNC(=N)N)NC(=O)[C@H](CCCNC(=N)N)NC(=O)[C@H](CCCNC(=N)N)NC(=O)[C@H](CCCNC(=N)N)NC(=O)[C@H](Cc1ccc3ccccc3c1)NC(=O)[C@H](Cc1ccccc1)NC2=O` [Peptide 22, bicyclo[Tm-(Pro-Sar-D-Asp-Pip-Nal-Arg-Arg-D-Phe)-Dap-(Phe-Nal-Arg-Arg-Arg-Arg-Dap)]-Lys] (P[Sar][dD][Pip][2Nal]RR[dF][Dap]F[2Nal]RRRR[Dap]K-NH2; linker N-9-16 via Trimesoyl; C-terminus assumed), for which the dissociation constant Kd came out at 480 nM. Further, where the note is “peptide 22 vs 3, peptide 27 vs 4”, the “Improvement of Pin1 binding by D-Phe for D-Ala vs parent peptide” value was around 2 fold.

As for `C[C@@H]1NC(=O)[C@H](CCCNC(=N)N)NC(=O)[C@H](Cc2ccc3ccccc3c2)NC(=O)[C@@H]2CCCCN2C(=O)[C@@H]([C@H](C)O)NC(=O)[C@H](Cc2c[nH]cn2)NC(=O)[C@@H](Cc2ccccc2)NC(=O)c2cc3cc(c2)C(=O)NC[C@H](NC(=O)[C@@H](Cc2ccccc2)NC1=O)C(=O)N[C@@H](Cc1ccccc1)C(=O)N[C@@H](Cc1ccc2ccccc2c1)C(=O)N[C@@H](CCCNC(=N)N)C(=O)N[C@@H](CCCNC(=N)N)C(=O)N[C@@H](CCCNC(=N)N)C(=O)N[C@@H](CCCNC(=N)N)C(=O)N[C@H](C(=O)N[C@@H](CCCCN)C(N)=O)CNC3=O` [Peptide 31, bicyclo[Tm-(D-Phe-His-D-Thr-Pip-Nal-Arg-Ala-D-Phe)-Dap-(Phe-Nal-Arg-Arg-Arg-Arg-Dap)]-Lys] ([dF]H[dT][Pip][2Nal]RA[dF][Dap]F[2Nal]RRRR[Dap]K-NH2; linker N-9-16 via Trimesoyl; C-terminus assumed), the Kd is 1680 ± 170 nM.

`C[C@@H]1NC(=O)[C@H](CCCNC(=N)N)NC(=O)[C@H](Cc2ccc3ccccc3c2)NC(=O)[C@@H]2CCCCN2C(=O)[C@@H]([C@H](C)O)NC(=O)[C@H](Cc2ccc(F)cc2)NC(=O)[C@@H](Cc2ccccc2)NC(=O)c2cc3cc(c2)C(=O)NC[C@H](NC(=O)[C@@H](Cc2ccccc2)NC1=O)C(=O)N[C@@H](CCCNC(=N)N)C(=O)N[C@@H](CCCNC(=N)N)C(=O)N[C@@H](Cc1ccc2ccccc2c1)C(=O)N[C@@H](Cc1ccccc1)C(=O)N[C@@H](CCCNC(=N)N)C(=O)N[C@@H](CCCNC(=N)N)C(=O)N[C@H](C(=O)N[C@@H](CCCCN)C(N)=O)CNC3=O` [Peptide 43, bicyclo[Tm-(D-Phe-Fpa-D-Thr-Pip-Nal-Arg-Ala-D-Phe)-Dap-(Arg-Arg-Nal-Phe-Arg-Arg-Dap)]-Lys] ([dF][Phe(4-F)][dT][Pip][2Nal]RA[dF][Dap]RR[2Nal]FRR[Dap]K-NH2; linker N-9-16 via Trimesoyl; C-terminus assumed): the dissociation constant Kd was found to be 1380 ± 160 nM. Turning to `C[C@H](O)[C@H]1NC(=O)[C@H](Cc2ccc(F)cc2)NC(=O)[C@@H](Cc2ccccc2)NC(=O)c2cc3cc(c2)C(=O)NC[C@H](NC(=O)[C@@H](C)NC(=O)CNC(=O)[C@H](CCCNC(=N)N)NC(=O)[C@H](Cc2ccc4ccccc4c2)NC(=O)[C@@H]2CCCCN2C1=O)C(=O)N[C@@H](Cc1ccccc1)C(=O)N[C@@H](Cc1ccc2ccccc2c1)C(=O)N[C@@H](CCCNC(=N)N)C(=O)N[C@@H](CCCNC(=N)N)C(=O)N[C@@H](CCCNC(=N)N)C(=O)N[C@@H](CCCNC(=N)N)C(=O)N[C@H](C(=O)N[C@@H](CCCCN)C(N)=O)CNC3=O` [Peptide 26, bicyclo[Tm-(D-Phe-4-Fpa-D-Thr-Pip-Nal-Arg-Gly-D-Ala)-Dap-(Phe-Nal-Arg-Arg-Arg-Arg-Dap)]-Lys] ([dF][Phe(4-F)][dT][Pip][2Nal]RG[dA][Dap]F[2Nal]RRRR[Dap]K-NH2; linker N-9-16 via Trimesoyl; C-terminus assumed), the Kd was 740 ± 110 nM. As for `C[C@@H]1NC(=O)[C@H](CCCNC(=N)N)NC(=O)[C@H](Cc2ccc3ccccc3c2)NC(=O)[C@@H]2CCCCN2C(=O)[C@@H]([C@H](C)O)NC(=O)[C@H](Cc2ccc(F)cc2)NC(=O)[C@@H](Cc2cccc(F)c2)NC(=O)c2cc3cc(c2)C(=O)NC[C@H](NC(=O)[C@@H](Cc2ccccc2)NC1=O)C(=O)N[C@@H](Cc1ccccc1)C(=O)N[C@@H](Cc1ccc2ccccc2c1)C(=O)N[C@@H](CCCNC(=N)N)C(=O)N[C@@H](CCCNC(=N)N)C(=O)N[C@@H](CCCNC(=N)N)C(=O)N[C@@H](CCCNC(=N)N)C(=O)N[C@H](C(=O)N[C@@H](CCCCN)C(N)=O)CNC3=O` [Peptide 36, bicyclo[Tm-(D-3-Fpa-Fpa-D-Thr-Pip-Nal-Arg-Ala-D-Phe)-Dap-(Phe-Nal-Arg-Arg-Arg-Arg-Dap)]-Lys] ([dPhe(3-F)][Phe(4-F)][dT][Pip][2Nal]RA[dF][Dap]F[2Nal]RRRR[Dap]K-NH2; linker N-9-16 via Trimesoyl; C-terminus assumed), the dissociation constant Kd worked out at 390 ± 50 nM. As to `C[C@@H]1NC(=O)[C@H](CCCNC(=N)N)NC(=O)[C@H](Cc2ccc3ccccc3c2)NC(=O)[C@@H]2CCCCN2C(=O)[C@@H]([C@H](C)O)NC(=O)[C@H](Cc2ccc(F)c(F)c2)NC(=O)[C@@H](Cc2ccccc2)NC(=O)c2cc3cc(c2)C(=O)NC[C@H](NC(=O)[C@@H](Cc2ccccc2)NC1=O)C(=O)N[C@@H](Cc1ccccc1)C(=O)N[C@@H](Cc1ccc2ccccc2c1)C(=O)N[C@@H](CCCNC(=N)N)C(=O)N[C@@H](CCCNC(=N)N)C(=O)N[C@@H](CCCNC(=N)N)C(=O)N[C@@H](CCCNC(=N)N)C(=O)N[C@H](C(=O)N[C@@H](CCCCN)C(N)=O)CNC3=O` [Peptide 29, bicyclo[Tm-(D-Phe-3,4-diFPhe-D-Thr-Pip-Nal-Arg-Ala-D-Phe)-Dap-(Phe-Nal-Arg-Arg-Arg-Arg-Dap)]-Lys] ([dF][Phe(3,4-F2)][dT][Pip][2Nal]RA[dF][Dap]F[2Nal]RRRR[Dap]K-NH2; linker N-9-16 via Trimesoyl; C-terminus assumed), the dissociation constant Kd stood at 410 ± 100 nM. The same measure, in the same setting: as for `C[C@@H]1NC(=O)[C@H](CCCNC(=N)N)NC(=O)[C@H](Cc2ccc3ccccc3c2)NC(=O)[C@@H]2CCCCN2C(=O)[C@@H]([C@H](C)O)NC(=O)[C@H](Cc2ccc(F)cc2)NC(=O)[C@@H](Cc2ccc(C#N)cc2)NC(=O)c2cc3cc(c2)C(=O)NC[C@H](NC(=O)[C@@H](Cc2ccccc2)NC1=O)C(=O)N[C@@H](Cc1ccccc1)C(=O)N[C@@H](Cc1ccc2ccccc2c1)C(=O)N[C@@H](CCCNC(=N)N)C(=O)N[C@@H](CCCNC(=N)N)C(=O)N[C@@H](CCCNC(=N)N)C(=O)N[C@@H](CCCNC(=N)N)C(=O)N[C@H](C(=O)N[C@@H](CCCCN)C(N)=O)CNC3=O` [Peptide 38, bicyclo[Tm-(D-4-CyanoPhe-Fpa-D-Thr-Pip-Nal-Arg-Ala-D-Phe)-Dap-(Phe-Nal-Arg-Arg-Arg-Arg-Dap)]-Lys] ([dPhe(4-CN)][Phe(4-F)][dT][Pip][2Nal]RA[dF][Dap]F[2Nal]RRRR[Dap]K-NH2; linker N-9-16 via Trimesoyl; C-terminus assumed), the figure is 350 ± 40 nM.
